2 compounds from patent publication US12060439B2, “Polymorph of echinocandin antifungal agent” (Cidara Therapeutics, Inc., priority 2018, dated 2024) can be followed below.

SMILES strings stand for the structures. Starred links: 1 amine or outer side, 2 acyl side, 3 side chain; linkers in the order of their positions; H or OH if unused. Positions of bridges follow the written chain, without caps; N, C: chain ends. Non-standard residues stand in square brackets, D forms with d. Residues, ends and D or L forms follow the SMILES beside them. *: point of attachment. Orn(4R-OH,5R-OCH2CH2NMe3+) = C[N+](C)(C)CCO[C@@H](N[*:3])[C@H](O)C[C@H](N[*:1])C(=O)[*:2]; pTerphenylCO(4''-OnC5H11) = CCCCCOc1ccc(-c2ccc(-c3ccc(C(=O)*)cc3)cc2)cc1; hTyr(3S-OH,4S-OH) = N[C@H](C(=O)O)[C@H](O)[C@@H](O)c1ccc(O)cc1; Pro(3S-OH,4S-Me) = C[C@H]1CN[C@H](C(=O)O)[C@H]1O; Hyp = O=C(O)[C@@H]1C[C@@H](O)CN1 Bounds are passed on as bounds.

Common to all, as to type: physicochemical
The nature of data set [1]: Solid form stability of polymorph on drying or storage, analysed by XRPD. The method, then: Compound 1 acetate Type E (1 g) was added to a beaker and dried in the vacuum oven at 40° C. overnight (not more than 18 hours). The solid was analyzed by XRPD analysis and shown to be Type B (FIG. 6).
Four samples of compound 1 acetate Type E were added to vials and placed in a desiccator, under vacuum, for up to 7 days.

A short description of data set [2]: Dynamic vapour sorption experiment. The following applies: for weight gain during the sorption isotherm: from 40-80% RH, 10% RH increments. The method, then: Further weight loss above 160° C. may correspond with the onset of decomposition. A dynamic vapour sorption experiment of Type B material was performed. The sample was subjected to a step profile from 40-90% RH at 10% increments, followed by desorption from 90-0% RH at 10% increments and then adsorption from 0-40% RH at 10% increments.
A dynamic vapour sorption experiment of Type E material was performed. The sample was subjected to a step profile from 40 to 90% RH at 10% increments, followed by desorption from 90 to 0% RH at 10% increments and then adsorption from 0 to 40% RH at 10% increments. […] There was a larger weight gain above 80% RH.

Data set [3] can be described thus: Slurrying in EtOH at 40° C., form transformation by XRPD. The following applies: after 3 days.
Data set [4] is described as follows: Form stability as a function of ethanol activity (aEtOH). How it is done: Compound 1 acetate and a solvent or solvent mixture were added to a vial and stirred at ambient temperature overnight to form a saturated suspension. Ethanol (EtOH) activity (aEtOH) of the solvent or solvent mixture was calculated using UNIFAC software. A further aliquot of the solvent or solvent mixture was added to the vial if the mixture was very thick. If all solids had dissolved, further amounts of compound 1 acetate were added and the mixture was stirred overnight. The slurry was then seeded with compound 1 acetate and compound 1 acetate-EtOH solvate and allowed to stir at ambient temperature for several days before isolation of solids and analysis by XRPD.
Compound 1 acetate Type E is a metastable solvate and converts to compound 1 acetate Type B on drying or storage at low ethanol activity (aEtOH<0.2). Type E was stable at an EtOH activity of >0.8.

[5] abbreviates: Ambient conditions (44-63% RH, 20-25° C.) for 5 days.
The mark [6] stands for this setting: ambient temperature in the desiccator.

With `CCCCCOc1ccc(-c2ccc(-c3ccc(C(=O)N[C@H]4C[C@@H](O)[C@@H](OCC[N+](C)(C)C)NC(=O)[C@@H]5[C@@H](O)[C@@H](C)CN5C(=O)[C@H]([C@@H](C)O)NC(=O)[C@H]([C@H](O)[C@@H](O)c5ccc(O)cc5)NC(=O)[C@@H]5C[C@@H](O)CN5C(=O)[C@H]([C@@H](C)O)NC4=O)cc3)cc2)cc1` [Type B] ({pTerphenylCO(4''-OnC5H11)}-[Orn(4R-OH,5R-OCH2CH2NMe3+)]T[Hyp][hTyr(3S-OH,4S-OH)]T[Pro(3S-OH,4S-Me)]; lactam 1-C), the “XRPD Result” value in data set [1] (setting [5]) is “Type B”. Also, the “weight gain during the sorption isotherm” value in data set [2] was found to be 6%. Further, the “form transformation to Type A (XRPD)” value in data set [3] is recorded as “no form transformation”.
For the compound `CCCCCOc1ccc(-c2ccc(-c3ccc(C(=O)N[C@H]4C[C@@H](O)[C@@H](OCC[N+](C)(C)C)NC(=O)[C@@H]5[C@@H](O)[C@@H](C)CN5C(=O)[C@H]([C@@H](C)O)NC(=O)[C@H]([C@H](O)[C@@H](O)c5ccc(O)cc5)NC(=O)[C@@H]5C[C@@H](O)CN5C(=O)[C@H]([C@@H](C)O)NC4=O)cc3)cc2)cc1` [Type E] ({pTerphenylCO(4''-OnC5H11)}-[Orn(4R-OH,5R-OCH2CH2NMe3+)]T[Hyp][hTyr(3S-OH,4S-OH)]T[Pro(3S-OH,4S-Me)]; lactam 1-C), the “XRPD Result” value is on record as “Type B” in data set [1] (setting [5]); “Type E” in data set [1] (Desiccator under vacuum at ambient conditions for 4 hours); “Type B + Type E” in data set [1] (Desiccator under vacuum at ambient conditions for 1 day); “Type B” in data set [1] (Desiccator under vacuum at ambient conditions for 5 days); “Type B” in data set [1] (Desiccator under vacuum at ambient conditions for 7 days). In data set [1] (setting [6]), the “time for which the form was stable” value was “up to 4 hours”. Further, in data set [1] (setting [6]), the “time to complete conversion to Type B” value is recorded as at most 5 days. In addition, the “XRPD Result after drying” value in data set [1] (vacuum oven at 40° C. overnight (not more than 18 hours)) was “Type B”. The “EtOH activity at which the form was stable” value in data set [4] is recorded as above 0.8. Besides, in data set [4] (low ethanol activity), the “ethanol activity at which the form converts to Type B on storage” value is given as below 0.2. For the same compound, the “weight loss during the equilibration hold” value in data set [2] (equilibration hold at 40% RH) is around 18.5%. Further, in data set [2], the “weight gain during the sorption isotherm” value is 5%.
